Laboratory results as given in ChEMBL document CHEMBL1201862, “PubChem BioAssay data set” (2004).
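Cultured in 96-well plates, cells were exposed to test compound for 48 hours across five concentrations. The concentration for 50% growth inhibition is given as GI50.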 Calls of active or inactive are those of the source. Rule as the data show it: active = GI50 up to about 1.1 µM and inactive = higher.

How the values were obtained:
Assay in all cases: growth of human tumour cells (NCI), 48 h
UO-31 = test system: UO-31
HOP-92 = test system: HOP-92
SK-MEL-28 = test system: SK-MEL-28
LOX IMVI = test system: LOX IMVI
SK-MEL-2 = test system: SK-MEL-2
OVCAR-5 = test system: OVCAR-5
A549 = test system: A549
HL-60 = test system: HL-60
HCC 2998 = test system: HCC 2998
SK-OV-3 = test system: SK-OV-3
K562 = test system: K562
MDA-MB-435 = test system: MDA-MB-435
TK-10 = test system: TK-10
NCI-H522 = test system: NCI-H522
UACC-257 = test system: UACC-257
ACHN = test system: ACHN
EKVX = test system: EKVX
NCI-H460 = test system: NCI-H460
OVCAR-8 = test system: OVCAR-8
NCI/ADR-RES = test system: NCI/ADR-RES

Row | Compound | GI50 (UO-31) | GI50 (HOP-92) | GI50 (SK-MEL-28) | GI50 (LOX IMVI) | GI50 (SK-MEL-2) | GI50 (OVCAR-5) | GI50 (A549) | GI50 (HL-60) | GI50 (HCC 2998) | GI50 (SK-OV-3) | GI50 (K562) | GI50 (MDA-MB-435) | GI50 (TK-10) | GI50 (NCI-H522) | GI50 (UACC-257) | GI50 (ACHN) | GI50 (EKVX) | GI50 (NCI-H460) | GI50 (OVCAR-8) | GI50 (NCI/ADR-RES)
1 | C[Si](C)(C)C1=C2C(=O)c3ccccc3C(=O)C2=C([Si](C)(C)C)[C@@H]2CCCC[C@H]12 | > 100 µM (inactive) | > 100 µM (inactive) | > 100 µM (inactive) | > 100 µM (inactive) | > 100 µM (inactive) | > 100 µM (inactive) | > 100 µM (inactive) | > 100 µM (inactive) | > 100 µM (inactive) | > 100 µM (inactive) | > 100 µM (inactive) | > 100 µM (inactive) | > 100 µM (inactive) | > 100 µM (inactive) | > 100 µM (inactive) | > 100 µM (inactive) | > 100 µM (inactive) | > 100 µM (inactive) |  | 
2 | COc1cc(OC)c2c(O)cc(CC(C)O)cc2c1 (centres undefined) | > 100 µM (inactive) | > 100 µM (inactive) | > 100 µM (inactive) | > 100 µM (inactive) | > 100 µM (inactive) | > 100 µM (inactive) | > 100 µM (inactive) | 78.9 µM (inactive) | > 100 µM (inactive) | > 100 µM (inactive) | > 100 µM (inactive) |  | > 100 µM (inactive) | > 100 µM (inactive) | > 100 µM (inactive) | > 100 µM (inactive) | > 100 µM (inactive) | > 100 µM (inactive) | > 100 µM (inactive) | 
3 | Cn1c(=O)oc2cc(C(=S)N3CCCCC3)ccc21 |  |  | > 100 µM (inactive) | > 100 µM (inactive) | > 100 µM (inactive) | > 100 µM (inactive) |  | > 100 µM (inactive) |  | > 100 µM (inactive) | > 100 µM (inactive) | > 100 µM (inactive) | > 100 µM (inactive) |  | > 100 µM (inactive) | > 100 µM (inactive) | > 100 µM (inactive) | > 100 µM (inactive) | > 100 µM (inactive) | > 100 µM (inactive)
4 | N#Cc1sc2c(c1O)c(=O)n(-c1ccccc1)c(=S)n2-c1ccccc1 | > 100 µM (inactive) | > 100 µM (inactive) | > 100 µM (inactive) | > 100 µM (inactive) | > 100 µM (inactive) | > 100 µM (inactive) | > 100 µM (inactive) | > 100 µM (inactive) | > 100 µM (inactive) |  | 89.1 µM (inactive) | > 100 µM (inactive) | > 100 µM (inactive) | > 100 µM (inactive) | > 100 µM (inactive) | > 100 µM (inactive) |  | > 100 µM (inactive) | > 100 µM (inactive) | 
5 | O=Cc1cc2c(cc1-c1cc3c(cc1C=O)OCO3)OCO2 | 71.6 µM (inactive) | > 100 µM (inactive) | 95.1 µM (inactive) | 23.3 µM (inactive) | > 100 µM (inactive) | > 100 µM (inactive) | 50.4 µM (inactive) | 34.1 µM (inactive) | > 100 µM (inactive) | > 100 µM (inactive) | 30.8 µM (inactive) |  | > 100 µM (inactive) | 64.1 µM (inactive) | > 100 µM (inactive) | 71.8 µM (inactive) | > 100 µM (inactive) | > 100 µM (inactive) | > 100 µM (inactive) | 
6 | CCC1=CC2CN3CCc4c([nH]c5ccccc45)C(C(=O)OC)(C2)C13 (centres undefined) | 32.2 µM (inactive) | 12.4 µM (inactive) | 53.3 µM (inactive) | 61.8 µM (inactive) | 67.8 µM (inactive) | 7.4 µM (inactive) | 47.6 µM (inactive) | 36.7 µM (inactive) | 48.3 µM (inactive) | 69.3 µM (inactive) | 39.2 µM (inactive) |  |  | 45.7 µM (inactive) | 54.8 µM (inactive) |  | 36.7 µM (inactive) | 52.6 µM (inactive) | 11 µM (inactive) | 45.5 µM (inactive)
7 | Cc1cc2nn(C3CCCCO3)nc2cc1C (centres undefined) | 75.7 µM (inactive) |  |  |  | > 100 µM (inactive) | > 100 µM (inactive) | > 100 µM (inactive) |  | > 100 µM (inactive) | > 100 µM (inactive) | > 100 µM (inactive) | > 100 µM (inactive) | > 100 µM (inactive) | > 100 µM (inactive) | > 100 µM (inactive) | > 100 µM (inactive) | > 100 µM (inactive) | > 100 µM (inactive) | > 100 µM (inactive) | > 100 µM (inactive)
8 | COC(=O)Nc1nc(=O)c2cc(OC)c(OC)cc2[nH]1 | 49.4 µM (inactive) |  | 63 µM (inactive) |  | > 100 µM (inactive) | > 100 µM (inactive) | > 100 µM (inactive) | 7.46 µM (inactive) | 71.3 µM (inactive) | 42.1 µM (inactive) | 3.59 µM (inactive) |  | > 100 µM (inactive) | 2.37 µM (inactive) | > 100 µM (inactive) | > 100 µM (inactive) | > 100 µM (inactive) | 9.33 µM (inactive) | 47.6 µM (inactive) | 5.47 µM (inactive)
9 | NC1=NC(c2ccccc2)CC(c2cc(Cl)cc(Br)c2O)=N1 (centres undefined) | 16.4 µM (inactive) | 18 µM (inactive) | 13.1 µM (inactive) | 12.7 µM (inactive) | 4.59 µM (inactive) | 19.6 µM (inactive) | 14.6 µM (inactive) | 3.28 µM (inactive) | 13.6 µM (inactive) | 24.7 µM (inactive) | 3 µM (inactive) |  | 18.8 µM (inactive) | 3.79 µM (inactive) | 14.7 µM (inactive) | 16.9 µM (inactive) | 10.1 µM (inactive) | 12.4 µM (inactive) | 17.1 µM (inactive) | 9.35 µM (inactive)
10 | COc1cccc2c1C(=O)c1c(O)c3c(c(O)c1C2=O)C[C@@](O)(C(=O)CO)CC3OC1CC(NCCCC(OC(C)=O)OC(C)=O)C(O)C(C)O1 (some centres undefined) | 0.00151 µM (active) | 0.00277 µM (active) | 0.00259 µM (active) | 0.000233 µM (active) | 0.00192 µM (active) | 0.00267 µM (active) | 0.00333 µM (active) | 0.00212 µM (active) | 0.00228 µM (active) | 0.00501 µM (active) | 0.000512 µM (active) |  | 0.00641 µM (active) | 0.00129 µM (active) | 0.00269 µM (active) | 0.00243 µM (active) | 0.00277 µM (active) | 0.000895 µM (active) | 0.00196 µM (active) | 
11 | Nc1ncnc2c(C3OC(CO)C(O)C3O)n[nH]c12 (centres undefined) | 0.0551 µM (active) | 0.0513 µM (active) |  | 0.0647 µM (active) | 0.0863 µM (active) | 0.59 µM (active) | 0.428 µM (active) | 0.045 µM (active) | 0.0375 µM (active) |  | 0.0741 µM (active) |  |  | 0.151 µM (active) |  |  | 0.0646 µM (active) | 0.0826 µM (active) |  | 0.076 µM (active)
12 | COc1ccc(/C=C\c2cc(OC)c(OC)c(OC)c2)c(O)c1O [COMBRETASTATIN A-1] | 0.91 µM (active) | 0.112 µM (active) | 5.41 µM (inactive) | 0.119 µM (active) | 0.0451 µM (active) | 4.37 µM (inactive) | 0.178 µM (active) | 0.0698 µM (active) | 0.166 µM (active) |  | 0.05 µM (active) | < 0.01 µM (active) | 2.92 µM (inactive) | 0.0942 µM (active) | 0.0582 µM (active) | 0.203 µM (active) | 1.99 µM (inactive) | 0.0463 µM (active) | 0.0881 µM (active) | 
